Measured values from US8785470B2, “Heterocyclic compounds and uses thereof” (Infinity Pharmaceuticals, Inc., priority 2011, dated 2014).

Legend:
PI3Kβ = target: T1, PI3Kβ (Homo sapiens, UniProt P42338); assay: PI3-Kinase HTRF assay, PI3Kβ; format: biochemical; conditions: bins Greater than 10 μM and Greater than 1 μM to 10 μM; 10 μM ATP, PIP2 at 10 μM
T1 construct: purchased Millipore Corporation 14-603-K
Excerpt: (§1) A PI3-Kinase HTRF® assay kit (cat No. 33-016) purchased from Millipore Corporation was used to screen compounds provided herein. This assay used specific, high affinity binding of the GRPI pleckstrin homology (PH) domain to PIP3, the product of a Class 1A or 1B PI3 Kinase acting on its physiological substrate PIP2. During the detection phase of the assay, a complex was generated between the GST-tagged PH domain and biotinylated short chain PIP3. The biotinylated PIP3 and the GST-tagged PH domain recruited fluorophores (Streptavidin-Allophycocyanin and Europium-labeled anti-GST respectively) to form the fluorescence resonance energy transfer (FRET) architecture, generating a stable time-resolved FRET signal. The FRET complex was disrupted in a competitive manner by non-biotinylated PIP3, a product formed in the PI3 Kinase assay.
(§2) PI3 Kinase α, β, γ and δ activity was assayed using the PI3 Kinase HTRF® assay kit (catalogue No. 33-016) purchased from Millipore Corporation. Purified recombinant PI3Kα (catalogue No. 14-602-K), PI3Kβ (catalogue No. 14-603-K), PI3Kγ (catalogue No. 14-558-K) and PI3Kδ (catalogue No. 14-604-K) were obtained from Millipore Corporation. Purified recombinant PI3K enzyme was used to catalyze the phosphorylation of phosphatidylinositol 4,5-bisphosphate (PIP2 at 10 μM) to phosphatidylinositol 3,4,5-trisphosphate (PIP3) in the presence of 10 μM ATP. The assay was carried out in 384-well format and detected using a Perkin Elmer EnVision Xcite Multilabel Reader. Emission ratios were converted into percent inhibitions and imported into GraphPad Prism software. The concentration necessary to achieve inhibition of enzyme activity by 50% (IC50) was calculated using concentrations ranging from 20 μM to 0.1 nM (12-point curve). IC50 values were determined using a nonlinear regression model available in GraphPad Prism 5. […]

PI3Kα = target: T2, PI3Kα (Homo sapiens, UniProt P42336); assay: PI3-Kinase HTRF assay, PI3Kα; format: biochemical; conditions: bins Greater than 10 μM and Greater than 1 μM to 10 μM; 10 μM ATP, PIP2 at 10 μM; read-out: IC50 P13Kα
T2 construct: purchased Millipore Corporation 14-602-K
Excerpt: as §1, §2

Balb/c splenic B cells = assay: B cell activation and proliferation assay; format: cell-based; conditions: Mus musculus, column bins 1 μM to 100 nM (given as 100-1000) and Less than 100 nM, read-out: B cell proliferation EC50
Experimental: The ability of one or more subject compounds to inhibit B cell activation and proliferation is determined according to standard procedures known in the art. For example, an in vitro cellular proliferation assay is established that measures the metabolic activity of live cells. The assay is performed in a 96 well microtiter plate using Alamar Blue reduction. Balb/c splenic B cells are purified over a Ficoll-Paque™ PLUS gradient followed by magnetic cell separation using a MACS B cell Isolation Kit (Miletenyi). Cells are plated in 90 μl at 50.000 cells/well in B Cell Media (RPMI+10% FBS+Penn/Strep+50 μME5 mM HEPES). A compound provided herein is diluted in B Cell Media and added in a 10 μl volume. Plates are incubated for 30 min at 37° C. and 5% CO2 (0.2% DMSO final concentration). A 50 μl B cell stimulation cocktail is then added containing either 10 μg/ml LPS or 5 μg/ml F(ab′)2 Donkey anti-mouse IgM plus 2 ng/ml recombinant mouse IL4 in B Cell Media. Plates are incubated for 72 hours at 37° C. and 5% CO2. A volume of 15 μL of Alamar Blue reagent is added to each well and plates are incubated for 5 hours at 37° C. and 5% CO2. Alamar Blue fluoresce is read at 560Ex/590Em, and IC50 or EC50 values are calculated using GraphPad Prism 5.

T2 sequence (P42336 whole entry): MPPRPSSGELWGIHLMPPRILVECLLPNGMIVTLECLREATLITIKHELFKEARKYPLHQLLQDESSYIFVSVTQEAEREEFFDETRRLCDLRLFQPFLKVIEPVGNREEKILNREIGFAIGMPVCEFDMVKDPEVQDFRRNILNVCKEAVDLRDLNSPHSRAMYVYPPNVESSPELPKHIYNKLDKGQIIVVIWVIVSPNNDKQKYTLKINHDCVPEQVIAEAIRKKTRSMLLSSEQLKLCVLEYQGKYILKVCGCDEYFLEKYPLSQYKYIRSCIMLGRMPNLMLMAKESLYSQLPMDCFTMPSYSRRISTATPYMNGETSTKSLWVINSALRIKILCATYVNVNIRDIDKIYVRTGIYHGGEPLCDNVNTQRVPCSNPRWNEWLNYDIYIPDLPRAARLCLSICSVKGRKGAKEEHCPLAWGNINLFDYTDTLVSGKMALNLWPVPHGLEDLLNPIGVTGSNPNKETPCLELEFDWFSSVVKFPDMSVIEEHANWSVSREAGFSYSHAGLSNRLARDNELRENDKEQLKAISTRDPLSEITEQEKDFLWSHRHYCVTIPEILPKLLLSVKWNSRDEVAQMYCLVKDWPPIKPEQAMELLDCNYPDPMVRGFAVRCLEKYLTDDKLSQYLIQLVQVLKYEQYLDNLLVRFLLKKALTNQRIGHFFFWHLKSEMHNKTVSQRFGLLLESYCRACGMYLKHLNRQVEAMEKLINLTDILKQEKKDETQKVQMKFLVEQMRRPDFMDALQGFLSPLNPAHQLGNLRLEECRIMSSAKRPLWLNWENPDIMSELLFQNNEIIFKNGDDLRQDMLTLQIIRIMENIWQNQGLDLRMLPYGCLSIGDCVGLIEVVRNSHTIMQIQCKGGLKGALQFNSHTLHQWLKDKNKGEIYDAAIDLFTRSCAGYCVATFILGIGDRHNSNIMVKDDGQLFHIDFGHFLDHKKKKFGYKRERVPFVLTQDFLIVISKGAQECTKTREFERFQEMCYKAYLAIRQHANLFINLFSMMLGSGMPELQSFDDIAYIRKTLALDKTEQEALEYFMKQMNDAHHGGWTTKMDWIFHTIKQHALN
T2 sequence (P27986 whole entry partner): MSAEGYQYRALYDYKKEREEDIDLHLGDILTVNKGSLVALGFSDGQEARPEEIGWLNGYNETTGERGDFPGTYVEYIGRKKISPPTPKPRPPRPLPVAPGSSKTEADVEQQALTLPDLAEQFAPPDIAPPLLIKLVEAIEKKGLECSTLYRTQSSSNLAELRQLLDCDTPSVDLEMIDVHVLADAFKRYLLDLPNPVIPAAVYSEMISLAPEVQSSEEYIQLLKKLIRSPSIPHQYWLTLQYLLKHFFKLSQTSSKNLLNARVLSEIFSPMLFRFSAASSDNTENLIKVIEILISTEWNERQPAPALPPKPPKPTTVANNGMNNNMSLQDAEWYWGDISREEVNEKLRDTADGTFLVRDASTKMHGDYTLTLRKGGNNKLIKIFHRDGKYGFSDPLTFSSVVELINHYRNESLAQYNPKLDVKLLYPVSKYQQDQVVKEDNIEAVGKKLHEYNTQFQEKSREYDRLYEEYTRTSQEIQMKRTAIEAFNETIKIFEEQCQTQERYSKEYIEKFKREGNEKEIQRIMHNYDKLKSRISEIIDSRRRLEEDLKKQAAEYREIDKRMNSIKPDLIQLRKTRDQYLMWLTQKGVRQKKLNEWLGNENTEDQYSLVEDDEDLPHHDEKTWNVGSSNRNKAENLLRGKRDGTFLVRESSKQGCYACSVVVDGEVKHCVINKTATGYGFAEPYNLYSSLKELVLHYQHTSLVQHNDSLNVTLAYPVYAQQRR
T1 sequence (P42338 whole entry): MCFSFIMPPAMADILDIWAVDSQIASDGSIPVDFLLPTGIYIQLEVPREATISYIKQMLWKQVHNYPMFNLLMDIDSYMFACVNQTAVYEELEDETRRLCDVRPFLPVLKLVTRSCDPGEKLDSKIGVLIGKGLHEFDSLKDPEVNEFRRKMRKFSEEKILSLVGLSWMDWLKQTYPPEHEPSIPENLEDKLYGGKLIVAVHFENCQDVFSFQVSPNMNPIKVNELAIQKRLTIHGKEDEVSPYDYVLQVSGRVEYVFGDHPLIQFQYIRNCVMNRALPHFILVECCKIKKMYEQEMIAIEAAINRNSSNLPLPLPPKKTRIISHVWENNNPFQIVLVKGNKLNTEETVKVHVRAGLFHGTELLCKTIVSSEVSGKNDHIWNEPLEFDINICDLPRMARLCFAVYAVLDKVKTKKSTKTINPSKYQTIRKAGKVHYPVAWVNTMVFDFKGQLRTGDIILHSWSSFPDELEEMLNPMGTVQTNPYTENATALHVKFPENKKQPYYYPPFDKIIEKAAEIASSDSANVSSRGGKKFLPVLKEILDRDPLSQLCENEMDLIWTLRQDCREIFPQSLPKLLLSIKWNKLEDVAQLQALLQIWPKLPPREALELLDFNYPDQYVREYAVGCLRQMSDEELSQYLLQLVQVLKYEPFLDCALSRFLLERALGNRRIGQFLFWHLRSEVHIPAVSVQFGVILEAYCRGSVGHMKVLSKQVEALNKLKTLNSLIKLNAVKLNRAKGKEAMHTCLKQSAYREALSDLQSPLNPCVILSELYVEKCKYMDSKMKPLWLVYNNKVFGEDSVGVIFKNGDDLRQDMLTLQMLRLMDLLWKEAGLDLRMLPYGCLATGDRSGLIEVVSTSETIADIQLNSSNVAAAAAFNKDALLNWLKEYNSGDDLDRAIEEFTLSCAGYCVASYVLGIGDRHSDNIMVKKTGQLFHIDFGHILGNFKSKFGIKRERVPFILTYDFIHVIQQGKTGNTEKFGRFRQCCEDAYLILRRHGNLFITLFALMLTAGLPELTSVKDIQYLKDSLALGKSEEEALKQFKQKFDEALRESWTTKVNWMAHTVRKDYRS
T1 sequence (P27986 whole entry partner): as the sequence (P27986 whole entry partner) above

| SMILES | IC50 (PI3Kβ) [µM] | IC50 (PI3Kα) [µM] | EC50 (Balb/c splenic B cells) [µM] |
| --- | --- | --- | --- |
| C[C@H](Nc1nc(N)ncc1C#N)c1cc2cccc(-c3cccc(Cl)c3)c2c(=O)n1-c1ccccc1 [Compound 34] | 1 to 10 |  |  |
| COc1cccc(-c2cccc3cc([C@H](C)Nc4nc(N)ncc4C#N)n(-c4ccccc4)c(=O)c23)c1 [Compound 36] | 1 to 10 |  |  |
| C[C@H](Nc1nc(N)ncc1C#N)c1cc2cccc(-c3ccc(F)cc3)c2c(=O)n1-c1ccccc1 [Compound 37] | 1 to 10 |  |  |
| C[C@H](Nc1nc(N)ncc1C#N)c1cc2cccc(-c3cccc(N(C)C)c3)c2c(=O)n1-c1ccccc1 [Compound 40] | 1 to 10 |  |  |
| Cc1cccc(-c2cccc3cc([C@H](C)Nc4nc(N)ncc4C#N)n(-c4ccccc4)c(=O)c23)c1 [Compound 46] | 1 to 10 |  |  |
| CC(C)Oc1cncc(-c2cccc3cc([C@H](C)Nc4nc(N)ncc4C#N)n(-c4ccccc4)c(=O)c23)c1 [Compound 53] | 1 to 10 |  |  |
| C[C@H](Nc1nc(N)ncc1C#N)c1cc2cccc(-c3ccnnc3)c2c(=O)n1-c1ccccc1 [Compound 57] |  | 1 to 10 | < 0.1 |
| C[C@H](Nc1nc(N)ncc1C#N)c1nc2cccc(Cl)c2c(=O)n1-c1ccccc1 [Compound 59, (S)-2-amino-4-((1-(5-chloro-4-oxo-3-phenyl-3,4-dihydroquinazolin-2-yl)ethyl)amino)pyrimidine-5-carbonitrile] |  | 1 to 10 | < 0.1 |
| C#Cc1cccc2cc([C@H](C)Nc3nc(N)ncc3C#N)n(-c3ccccc3)c(=O)c12 [Compound 72] |  | 1 to 10 | < 0.1 |
| C#Cc1cnc(N)nc1N[C@@H](C)c1cc2cccc(Cl)c2c(=O)n1-c1ccccc1 [Compound 91] |  | 1 to 10 | < 0.1 |
| COc1ccc(-c2cccc3cc([C@H](C)Nc4nc(N)ncc4C#N)n(C4CC4)c(=O)c23)cn1 [Compound 108] |  | 1 to 10 | < 0.1 |
| Cc1csc(-c2cnc(N)nc2N[C@@H](C)c2cc3cccc(Cl)c3c(=O)n2-c2ccccc2)n1 [Compound 136] |  | 1 to 10 | < 0.1 |
| C[C@H](Nc1nc(N)ncc1C#N)c1cc2cccc(O)c2c(=O)n1-c1ccccc1 [Compound 145] | 1 to 10 |  |  |
| C[C@H](Nc1nc(N)ncc1C#N)c1cc2cccc(-c3cncc(OC(F)F)c3)c2c(=O)n1-c1ccccc1 [Compound 152] |  | 1 to 10 | < 0.1 |
| C[C@H](Nc1nc(N)ncc1C#N)c1cc2cccc(-c3ccc(O)nc3)c2c(=O)n1-c1ccccc1 [Compound 156] |  | 1 to 10 | < 0.1 |
| C[C@H](Nc1nc(N)ncc1C#N)c1cc2cccc(-c3cccc(S(C)(=O)=O)c3)c2c(=O)n1-c1ccccc1 [Compound 164] |  | 1 to 10 | < 0.1 |
| C[C@H](Nc1nc(N)ncc1-c1ccncc1)c1cc2cccc(Cl)c2c(=O)n1-c1ccccc1 [Compound 168] | 1 to 10 |  |  |
| COc1cc(-c2cccc3cc([C@H](C)Nc4nc(N)ncc4-c4ccncc4)n(-c4ccccc4)c(=O)c23)ccn1 [Compound 169] |  | 1 to 10 | < 0.1 |
| COc1cc(-c2cccc3cc([C@H](C)Nc4nc(N)ncc4[N+](=O)[O-])n(-c4ccccc4)c(=O)c23)ccn1 [Compound 177] |  | 1 to 10 | < 0.1 |
| CNc1cc(-c2cccc3cc([C@H](C)Nc4nc(N)ncc4C#N)n(-c4ccccc4)c(=O)c23)ccn1 [Compound 185] |  | 1 to 10 | < 0.1 |
| C[C@H](Nc1nc(N)ncc1C(=O)N(C)C)c1cc2cccc(Cl)c2c(=O)n1-c1ccccc1 [Compound 199] |  | 1 to 10 | < 0.1 |

| SMILES | IC50 (PI3Kβ) [µM] | IC50 (PI3Kα) [µM] | EC50 (Balb/c splenic B cells) [µM] |
| --- | --- | --- | --- |
| C[C@H](Nc1nc(N)ncc1C(=O)N(C)C)c1cc2cccc(-c3cnn(C)c3)c2c(=O)n1-c1ccccc1 [Compound 203] |  | 1 to 10 | < 0.1 |
| COc1ccc(-c2cccc3cc([C@H](C)Nc4nc(N)ncc4C#N)n(-c4ccccc4)c(=O)c23)nc1 [Compound 206] |  | 1 to 10 | < 0.1 |
| C[C@H](Nc1nc(N)ncc1C#N)c1cc2cccc(Cl)c2c(=O)n1-c1ccc(OC(F)(F)F)cc1 [Compound 210] | 1 to 10 |  |  |
| COc1ccc(-n2c([C@H](C)Nc3nc(N)ncc3C#N)cc3cccc(Cl)c3c2=O)cc1 [Compound 214] | 1 to 10 |  |  |
| C[C@H](Nc1nc(N)ncc1C#N)c1cc2cccc(Cl)c2c(=O)n1-c1ccc(Cl)cc1 [Compound 217] |  | 1 to 10 | < 0.1 |
| CC#Cc1cccc2cc([C@H](C)Nc3nc(N)ncc3C#N)n(-c3ccccc3)c(=O)c12 [Compound 222] |  | 1 to 10 | < 0.1 |
| Cc1cc(-c2cccc3cc([C@H](C)Nc4nc(N)ncc4C#N)n(-c4ccccc4)c(=O)c23)cn(C)c1=O [Compound 231] |  | 1 to 10 | < 0.1 |
| C[C@H](Nc1nc(N)ncc1C#N)c1cc2cccc(-c3ccc(=O)n(C4CCOCC4)c3)c2c(=O)n1-c1ccccc1 [Compound 235] | 1 to 10 |  |  |
| C[C@H](Nc1nc(N)ncc1C#N)c1cc2cccc(Cl)c2c(=O)n1-c1cscn1 [Compound 249] |  | 1 to 10 | < 0.1 |
| C[C@H](Nc1nc(N)ncc1C#N)c1cc2cccc(Cl)c2c(=O)n1-c1c(F)cc(F)cc1F [Compound 258] | 1 to 10 |  |  |
| C[C@H](Nc1nc(N)ncc1C#N)c1cc2cccc(Cl)c2c(=O)n1-c1ccc2c(c1)OCO2 [Compound 261] | 1 to 10 |  |  |
| C[C@H](Nc1nc(N)ncc1C#N)c1cc2cccc(Cl)c2c(=O)n1-c1cccc(F)c1F [Compound 282] | 1 to 10 |  |  |
| C[C@H](Nc1nc(N)ncc1C#N)c1cc2cccc(Cl)c2c(=O)n1Cc1ccccc1 [Compound 303] | 1 to 10 |  |  |
| CCn1c([C@H](C)Nc2nc(N)ncc2C#N)cc2cccc(Cl)c2c1=O [Compound 309] |  | 1 to 10 | < 0.1 |
| CC(C)n1c([C@H](C)Nc2nc(N)ncc2C#N)cc2cccc(Cl)c2c1=O [Compound 325] |  | 1 to 10 | < 0.1 |
| C[C@H](Nc1nc(N)ncc1C#N)c1cc2cccc(Cl)c2c(=O)n1-c1ccon1 [Compound 332] |  | 1 to 10 | < 0.1 |
| C[C@H](Nc1nc(N)ncc1-c1cscn1)c1cc2cccc(Cl)c2c(=O)n1-c1ccccc1 [Compound 360] |  | 1 to 10 | < 0.1 |
| C[C@H](Nc1nc(N)ncc1-c1cncs1)c1cc2cccc(Cl)c2c(=O)n1-c1ccccc1 [Compound 361] |  | 1 to 10 | < 0.1 |
| C[C@H](Nc1nc(N)ncc1-c1ncco1)c1cc2cccc(Cl)c2c(=O)n1-c1ccccc1 [Compound 365] |  | 1 to 10 | < 0.1 |
| CCOc1nc(-c2cnc(N)nc2N[C@@H](C)c2cc3cccc(Cl)c3c(=O)n2-c2ccccc2)cs1 [Compound 369] |  | 1 to 10 | < 0.1 |
| CCOc1ncc(-c2cnc(N)nc2N[C@@H](C)c2cc3cccc(Cl)c3c(=O)n2-c2ccccc2)s1 [Compound 371] |  | 1 to 10 | < 0.1 |
